According to the NIST ThermoML archive (doi:10.1021/acs.jced.7b00572):

Details: Liquid, Vibrating wire viscometry

O=C(C(F)(F)C(F)(F)F)C(F)(C(F)(F)F)C(F)(F)F [dodecafluoro-2-methylpentan-3-one]
Details | viscosity [mPa·s]
243.15 K, 10000 kPa | 1.923
243.15 K, 20000 kPa | 2.329
243.15 K, 40000 kPa | 3.247
243.16 K, 100 kPa | 1.597
243.16 K, 1000 kPa | 1.628
243.16 K, 5000 kPa | 1.749
243.16 K, 30000 kPa | 2.761
253.15 K, 100 kPa | 1.307
253.15 K, 1000 kPa | 1.339
253.15 K, 5000 kPa | 1.451
253.15 K, 10000 kPa | 1.58
253.15 K, 20000 kPa | 1.913
253.15 K, 30000 kPa | 2.26
253.16 K, 40000 kPa | 2.659
263.14 K, 5000 kPa | 1.197
263.14 K, 10000 kPa | 1.327
263.14 K, 20000 kPa | 1.573
263.14 K, 30000 kPa | 1.86
263.14 K, 40000 kPa | 2.169
263.15 K, 100 kPa | 1.082
263.15 K, 1000 kPa | 1.107
273.14 K, 100 kPa | 0.9209
273.14 K, 20000 kPa | 1.332
273.15 K, 1000 kPa | 0.9395
273.15 K, 5000 kPa | 1.014
273.15 K, 10000 kPa | 1.117
273.15 K, 30000 kPa | 1.566
273.15 K, 40000 kPa | 1.818
283.15 K, 100 kPa | 0.7823
283.15 K, 1000 kPa | 0.7955
283.15 K, 5000 kPa | 0.8641
283.15 K, 10000 kPa | 0.9569
283.15 K, 20000 kPa | 1.142
283.15 K, 30000 kPa | 1.345
283.15 K, 40000 kPa | 1.567
293.14 K, 10000 kPa | 0.8262
293.15 K, 100 kPa | 0.6693
293.15 K, 1000 kPa | 0.6851
293.15 K, 5000 kPa | 0.7466
293.15 K, 40000 kPa | 1.35
293.16 K, 20000 kPa | 0.9881
293.16 K, 30000 kPa | 1.156
303.14 K, 5000 kPa | 0.6463
303.15 K, 100 kPa | 0.5776
303.15 K, 10000 kPa | 0.7173
303.15 K, 20000 kPa | 0.861
303.15 K, 40000 kPa | 1.177
303.16 K, 1000 kPa | 0.5906
303.16 K, 30000 kPa | 1.013
313.13 K, 1000 kPa | 0.5123
313.14 K, 5000 kPa | 0.5621
313.14 K, 20000 kPa | 0.7566
313.14 K, 30000 kPa | 0.8908
313.15 K, 100 kPa | 0.5006
313.15 K, 10000 kPa | 0.6263
313.15 K, 40000 kPa | 1.033
323.16 K, 1000 kPa | 0.4465
323.16 K, 20000 kPa | 0.668
323.16 K, 30000 kPa | 0.7894
323.16 K, 40100 kPa | 0.9178
323.17 K, 5000 kPa | 0.4933
323.17 K, 10000 kPa | 0.5514
333.16 K, 1000 kPa | 0.3918
333.16 K, 5000 kPa | 0.4349
333.16 K, 10000 kPa | 0.4891
333.16 K, 20000 kPa | 0.5966
333.16 K, 30000 kPa | 0.7059
333.16 K, 40000 kPa | 0.8211
343.15 K, 5000 kPa | 0.3849
343.15 K, 10000 kPa | 0.4348
343.15 K, 20000 kPa | 0.5345
343.15 K, 30000 kPa | 0.6351
343.15 K, 40000 kPa | 0.7373
343.16 K, 1000 kPa | 0.342
353.15 K, 1000 kPa | 0.3011
353.15 K, 30000 kPa | 0.5739
353.15 K, 40000 kPa | 0.6681
353.16 K, 5000 kPa | 0.3426
353.16 K, 10000 kPa | 0.3892
353.16 K, 20000 kPa | 0.4822
363.15 K, 5000 kPa | 0.3044
363.15 K, 10000 kPa | 0.3496
363.15 K, 20000 kPa | 0.436
363.15 K, 30000 kPa | 0.5213
363.15 K, 40000 kPa | 0.608
373.15 K, 5000 kPa | 0.2711
373.15 K, 10000 kPa | 0.3155
373.15 K, 20000 kPa | 0.397
373.15 K, 30000 kPa | 0.4778
373.15 K, 40000 kPa | 0.5583
